Data on eight compounds can be found in ChEMBL document CHEMBL6120986, “In silico inspired design of urea noscapine congeners as anticancer agents: Chemical synthesis and experimental evaluation using breast cancer cells and a xenograft mouse model” (Eur J Med Chem, 2025).

One data set has as its system MDA-MB-231. The experiment in a line: Antiproliferative activity against human MDA-MB-231 cells assessed as inhibition of cell proliferation incubated for 72 hrs by SRB assay. The class given is functional, cell-based. Particulars: MDA-MB-231, 72 h. For orientation: In SRB staining, fixed cells bind dye roughly in proportion to their protein.
The subject of the next data set is MCF7. Nature of the data set: Antiproliferative activity against human MCF7 cells assessed as inhibition of cell proliferation incubated for 72 hrs by SRB assay. Type of data set: functional, cell-based. The note with it: MCF7, 72 h.
Data set [1] is described as follows: Cytotoxicty against HEK cells incubated for 72 hrs by SRB assay. Particulars: human. Type of data set: toxicity, cell-based.

The structures appear in SMILES notation.

By IC50 is commonly meant the midpoint of a concentration-inhibition curve. `COc1ccc2c(c1OC)C(=O)O[C@@H]2[C@H]1c2c(c(NC(=O)Nc3ccc(F)c(Cl)c3)c3c(c2OC)OCO3)CCN1C`: the IC50 in the data set on MDA-MB-231 was determined as 35.2 µM; in the data set with MCF7, 32.7 µM. The compound also displayed an IC50 at 72 h in data set [1] of 285 µM.

For `COc1ccc2c(c1OC)C(=O)O[C@@H]2[C@H]1c2c(c(NC(=O)Nc3cccc(F)c3)c3c(c2OC)OCO3)CCN1C`, the IC50 is 48.5 µM in the data set with MDA-MB-231 and 37.9 µM in the data set with MCF7. In data set [1], this compound registered an IC50 at 72 h of 292 µM.

In the case of `COc1ccc2c(c1OC)C(=O)O[C@@H]2[C@H]1c2c(c(NC(=O)Nc3c(Cl)cc(Cl)cc3Cl)c3c(c2OC)OCO3)CCN1C`, the IC50 in the data set on MDA-MB-231 was determined as 35.7 µM; in the data set with MCF7 it was 27.7 µM. In addition, half-maximal inhibition in data set [1] (IC50 at 72 h) required 293 µM.

On to `COc1cc(NC(=O)Nc2c3c(c(OC)c4c2OCO4)[C@H]([C@H]2OC(=O)c4c2ccc(OC)c4OC)N(C)CC3)cc(OC)c1OC`, for which the IC50 in the data set with MDA-MB-231 came out at 48.1 µM; in the data set on MCF7, 36.1 µM. For the same compound, the IC50 at 72 h in data set [1] was 294 µM.

With `COc1ccc(NC(=O)Nc2c3c(c(OC)c4c2OCO4)[C@H]([C@H]2OC(=O)c4c2ccc(OC)c4OC)N(C)CC3)c(OC)c1`, the IC50 in the data set on MDA-MB-231 worked out at 20.4 µM; in the data set on MCF7, 17.5 µM. In addition, the IC50 at 72 h in data set [1] was 306 µM.

`CCc1ccc(NC(=O)Nc2c3c(c(OC)c4c2OCO4)[C@H]([C@H]2OC(=O)c4c2ccc(OC)c4OC)N(C)CC3)cc1`: the IC50 was 45.7 µM in the data set on MDA-MB-231 and 38.2 µM in the data set with MCF7. Further, the IC50 at 72 h in data set [1] was 290 µM.

As to `COc1ccc2c(c1OC)C(=O)O[C@@H]2[C@H]1c2c(c(NC(=O)Nc3cccc(C(C)=O)c3)c3c(c2OC)OCO3)CCN1C`, the values for the IC50 in the data set on MDA-MB-231 and in the data set with MCF7 were 33.2 µM and 29.5 µM, respectively. The compound also showed an IC50 at 72 h in data set [1] of 306 µM.

Take `COc1ccc2c(c1OC)C(=O)O[C@@H]2[C@H]1c2c(cc3c(c2OC)OCO3)CCN1C` [NOSCAPINE]: the IC50 in the data set on MDA-MB-231 amounted to 54 µM; in the data set with MCF7 it was 39.7 µM. The same compound gave an IC50 at 72 h in data set [1] of 229 µM.
